# Source: article PMC5725665, “Discovery of a Highly Selective Cell‐Active Inhibitor of the Histone Lysine Demethylases KDM2/7” (Angewandte Chemie (International Ed. in English), 2017)
# Assays:
# [1] = target: T1, KDM7A (Homo sapiens, UniProt Q6ZMT4); experiment: AlphaScreen demethylase assay; assay type: biochemical
# T1 construct: isolated enzyme
# T1 sequence (Q6ZMT4 1-941): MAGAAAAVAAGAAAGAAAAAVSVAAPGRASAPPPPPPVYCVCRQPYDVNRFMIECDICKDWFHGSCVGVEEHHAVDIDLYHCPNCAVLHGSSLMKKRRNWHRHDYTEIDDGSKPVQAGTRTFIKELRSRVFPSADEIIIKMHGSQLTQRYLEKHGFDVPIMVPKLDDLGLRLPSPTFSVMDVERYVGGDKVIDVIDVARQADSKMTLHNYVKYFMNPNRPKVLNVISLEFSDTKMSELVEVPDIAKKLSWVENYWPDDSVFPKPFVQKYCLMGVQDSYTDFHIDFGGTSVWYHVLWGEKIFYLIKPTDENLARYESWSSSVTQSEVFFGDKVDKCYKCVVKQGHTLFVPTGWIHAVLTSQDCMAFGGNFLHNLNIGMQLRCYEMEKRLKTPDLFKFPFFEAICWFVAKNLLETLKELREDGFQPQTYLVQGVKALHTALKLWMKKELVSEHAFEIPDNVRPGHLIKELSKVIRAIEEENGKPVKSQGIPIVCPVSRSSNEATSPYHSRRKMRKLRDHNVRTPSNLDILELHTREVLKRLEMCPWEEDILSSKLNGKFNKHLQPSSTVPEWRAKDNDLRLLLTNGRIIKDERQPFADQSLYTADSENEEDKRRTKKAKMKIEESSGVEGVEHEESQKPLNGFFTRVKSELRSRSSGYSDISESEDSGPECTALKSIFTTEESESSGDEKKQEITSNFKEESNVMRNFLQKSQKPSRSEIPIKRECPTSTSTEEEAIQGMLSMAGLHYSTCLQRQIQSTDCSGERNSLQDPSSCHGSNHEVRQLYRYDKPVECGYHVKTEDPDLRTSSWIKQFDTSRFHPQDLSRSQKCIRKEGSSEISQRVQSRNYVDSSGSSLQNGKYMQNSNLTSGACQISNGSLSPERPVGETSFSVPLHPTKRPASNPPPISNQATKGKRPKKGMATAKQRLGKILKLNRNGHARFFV
# [2] = target: CHD1 (Homo sapiens, UniProt O14646); experiment: biochemical; design: AlphaScreen peptide displacement assay, methyl-lysine reader domains; details: read-out: IC50 reader domains, AlphaScreen
# Protocol: (§1) S106 1.76 1.63 2.01 133 2.78 6.13 6.23 3.55 2.63 1.75 1.31 Table S-3: Summary of indoles tested. IC50 values correspond to KDM2A inhibition by AlphaScreen. 3.2 Selectivity-screening against other epigenetic writer and reader proteins Methyl-Lysine Reader domain assays. Fluorescence polarisation assays for methyl-lysine reader domains were carried out as described. AlphaScreen peptide displacement assays were performed according to manufacturer’s protocol (PerkinElmer, USA) with minor modifications. All reagents were diluted in 25 mM HEPES, 100 mM NaCl, 0.1 % BSA, pH 7.4 and 0.05 % CHAPS and allowed to equilibrate to room temperature prior to addition to plates. An 11-point 1:2.0
# [3] = target: T2, KDM4A Tudor domain (Homo sapiens, UniProt O75164); experiment: biochemical; design: AlphaScreen peptide displacement assay, methyl-lysine reader domains; details: read-out: IC50 reader domains, AlphaScreen
# T2 construct: Tudor domain
# T2 sequence (O75164 1-1064): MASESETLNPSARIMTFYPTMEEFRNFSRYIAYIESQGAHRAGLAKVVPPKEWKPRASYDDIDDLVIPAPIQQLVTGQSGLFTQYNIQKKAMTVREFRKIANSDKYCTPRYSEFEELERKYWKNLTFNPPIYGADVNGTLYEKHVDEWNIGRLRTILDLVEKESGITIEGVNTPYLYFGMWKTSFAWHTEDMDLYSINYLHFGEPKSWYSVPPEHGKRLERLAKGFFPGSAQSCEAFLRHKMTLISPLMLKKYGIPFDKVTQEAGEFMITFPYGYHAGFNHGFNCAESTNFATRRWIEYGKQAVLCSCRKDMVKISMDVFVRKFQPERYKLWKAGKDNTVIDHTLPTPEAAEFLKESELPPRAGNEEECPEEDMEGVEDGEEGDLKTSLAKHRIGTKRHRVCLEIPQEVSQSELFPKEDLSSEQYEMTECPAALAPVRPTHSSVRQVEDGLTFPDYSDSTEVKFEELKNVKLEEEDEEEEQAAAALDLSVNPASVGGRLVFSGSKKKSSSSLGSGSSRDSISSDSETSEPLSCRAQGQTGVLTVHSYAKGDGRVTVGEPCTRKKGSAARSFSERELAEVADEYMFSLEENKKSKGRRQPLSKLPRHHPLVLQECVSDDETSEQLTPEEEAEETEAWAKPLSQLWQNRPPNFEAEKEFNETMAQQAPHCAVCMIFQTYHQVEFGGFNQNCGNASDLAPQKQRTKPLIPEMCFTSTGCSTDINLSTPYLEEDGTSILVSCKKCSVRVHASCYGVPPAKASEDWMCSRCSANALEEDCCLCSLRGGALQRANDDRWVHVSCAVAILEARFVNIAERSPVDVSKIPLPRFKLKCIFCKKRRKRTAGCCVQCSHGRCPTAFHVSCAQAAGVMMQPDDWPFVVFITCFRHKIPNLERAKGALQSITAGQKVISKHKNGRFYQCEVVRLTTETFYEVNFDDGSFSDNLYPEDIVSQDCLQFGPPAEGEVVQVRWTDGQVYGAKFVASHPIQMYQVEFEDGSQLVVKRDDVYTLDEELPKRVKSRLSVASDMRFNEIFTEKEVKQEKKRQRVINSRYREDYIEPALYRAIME
# Protocol: as §1
# [4] = target: T3, KDM7B PHD-finger domain (Homo sapiens, UniProt Q9UPP1); experiment: biochemical; design: AlphaScreen peptide displacement assay, methyl-lysine reader domains; details: read-out: IC50 reader domains, AlphaScreen
# T3 construct: gene PHF8; PHD-finger domain
# Protocol: as §1
# [5] = target: T4, SGF29 (Homo sapiens, UniProt Q96ES7); experiment: biochemical; design: AlphaScreen peptide displacement assay, methyl-lysine reader domains; details: read-out: IC50 reader domains, AlphaScreen
# T4 sequence (Q96ES7 1-293): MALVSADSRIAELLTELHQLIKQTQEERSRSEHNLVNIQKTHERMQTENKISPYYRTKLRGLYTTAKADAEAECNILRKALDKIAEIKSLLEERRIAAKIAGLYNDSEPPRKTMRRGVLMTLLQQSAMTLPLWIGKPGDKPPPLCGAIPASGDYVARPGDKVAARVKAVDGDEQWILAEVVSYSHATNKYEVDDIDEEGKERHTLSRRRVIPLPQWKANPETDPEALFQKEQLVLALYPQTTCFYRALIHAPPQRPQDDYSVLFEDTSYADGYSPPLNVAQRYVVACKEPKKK
# Protocol: as §1
# [6] = target: SPIN1 (Homo sapiens, UniProt Q9Y657); experiment: biochemical; design: AlphaScreen peptide displacement assay, methyl-lysine reader domains; details: read-out: IC50 reader domains, AlphaScreen
# Protocol: as §1
# T3 sequence (Q9UPP1 whole entry, the tested form may be a part): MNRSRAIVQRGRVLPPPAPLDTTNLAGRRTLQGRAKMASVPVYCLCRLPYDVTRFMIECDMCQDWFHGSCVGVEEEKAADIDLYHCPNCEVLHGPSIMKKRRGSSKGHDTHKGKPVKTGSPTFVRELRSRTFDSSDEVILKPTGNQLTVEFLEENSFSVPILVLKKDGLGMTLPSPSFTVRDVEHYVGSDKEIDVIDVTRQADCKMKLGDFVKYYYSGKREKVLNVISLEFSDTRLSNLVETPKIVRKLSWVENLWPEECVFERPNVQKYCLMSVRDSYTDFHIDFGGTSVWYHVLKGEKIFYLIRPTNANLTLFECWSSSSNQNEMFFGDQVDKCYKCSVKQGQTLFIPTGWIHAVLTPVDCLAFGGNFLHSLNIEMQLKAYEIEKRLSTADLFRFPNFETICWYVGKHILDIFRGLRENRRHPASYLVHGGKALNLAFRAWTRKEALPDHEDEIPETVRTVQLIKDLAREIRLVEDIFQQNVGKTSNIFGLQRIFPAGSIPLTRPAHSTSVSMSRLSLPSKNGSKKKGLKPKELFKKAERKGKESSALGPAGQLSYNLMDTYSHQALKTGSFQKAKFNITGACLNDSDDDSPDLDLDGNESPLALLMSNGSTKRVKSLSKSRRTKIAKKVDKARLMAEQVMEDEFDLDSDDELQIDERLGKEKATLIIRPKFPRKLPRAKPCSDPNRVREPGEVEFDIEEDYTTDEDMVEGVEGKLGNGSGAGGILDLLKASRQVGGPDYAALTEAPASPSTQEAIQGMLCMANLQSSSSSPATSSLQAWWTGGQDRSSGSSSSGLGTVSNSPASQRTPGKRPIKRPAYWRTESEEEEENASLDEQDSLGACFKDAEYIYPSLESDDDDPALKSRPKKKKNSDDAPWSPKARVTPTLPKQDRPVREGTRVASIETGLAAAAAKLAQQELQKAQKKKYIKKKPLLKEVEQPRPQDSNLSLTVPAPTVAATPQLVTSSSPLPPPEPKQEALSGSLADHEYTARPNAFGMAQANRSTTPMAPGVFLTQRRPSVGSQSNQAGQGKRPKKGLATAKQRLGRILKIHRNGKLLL
# Chain of CHD1 (O14646 whole entry, the tested form may be a part): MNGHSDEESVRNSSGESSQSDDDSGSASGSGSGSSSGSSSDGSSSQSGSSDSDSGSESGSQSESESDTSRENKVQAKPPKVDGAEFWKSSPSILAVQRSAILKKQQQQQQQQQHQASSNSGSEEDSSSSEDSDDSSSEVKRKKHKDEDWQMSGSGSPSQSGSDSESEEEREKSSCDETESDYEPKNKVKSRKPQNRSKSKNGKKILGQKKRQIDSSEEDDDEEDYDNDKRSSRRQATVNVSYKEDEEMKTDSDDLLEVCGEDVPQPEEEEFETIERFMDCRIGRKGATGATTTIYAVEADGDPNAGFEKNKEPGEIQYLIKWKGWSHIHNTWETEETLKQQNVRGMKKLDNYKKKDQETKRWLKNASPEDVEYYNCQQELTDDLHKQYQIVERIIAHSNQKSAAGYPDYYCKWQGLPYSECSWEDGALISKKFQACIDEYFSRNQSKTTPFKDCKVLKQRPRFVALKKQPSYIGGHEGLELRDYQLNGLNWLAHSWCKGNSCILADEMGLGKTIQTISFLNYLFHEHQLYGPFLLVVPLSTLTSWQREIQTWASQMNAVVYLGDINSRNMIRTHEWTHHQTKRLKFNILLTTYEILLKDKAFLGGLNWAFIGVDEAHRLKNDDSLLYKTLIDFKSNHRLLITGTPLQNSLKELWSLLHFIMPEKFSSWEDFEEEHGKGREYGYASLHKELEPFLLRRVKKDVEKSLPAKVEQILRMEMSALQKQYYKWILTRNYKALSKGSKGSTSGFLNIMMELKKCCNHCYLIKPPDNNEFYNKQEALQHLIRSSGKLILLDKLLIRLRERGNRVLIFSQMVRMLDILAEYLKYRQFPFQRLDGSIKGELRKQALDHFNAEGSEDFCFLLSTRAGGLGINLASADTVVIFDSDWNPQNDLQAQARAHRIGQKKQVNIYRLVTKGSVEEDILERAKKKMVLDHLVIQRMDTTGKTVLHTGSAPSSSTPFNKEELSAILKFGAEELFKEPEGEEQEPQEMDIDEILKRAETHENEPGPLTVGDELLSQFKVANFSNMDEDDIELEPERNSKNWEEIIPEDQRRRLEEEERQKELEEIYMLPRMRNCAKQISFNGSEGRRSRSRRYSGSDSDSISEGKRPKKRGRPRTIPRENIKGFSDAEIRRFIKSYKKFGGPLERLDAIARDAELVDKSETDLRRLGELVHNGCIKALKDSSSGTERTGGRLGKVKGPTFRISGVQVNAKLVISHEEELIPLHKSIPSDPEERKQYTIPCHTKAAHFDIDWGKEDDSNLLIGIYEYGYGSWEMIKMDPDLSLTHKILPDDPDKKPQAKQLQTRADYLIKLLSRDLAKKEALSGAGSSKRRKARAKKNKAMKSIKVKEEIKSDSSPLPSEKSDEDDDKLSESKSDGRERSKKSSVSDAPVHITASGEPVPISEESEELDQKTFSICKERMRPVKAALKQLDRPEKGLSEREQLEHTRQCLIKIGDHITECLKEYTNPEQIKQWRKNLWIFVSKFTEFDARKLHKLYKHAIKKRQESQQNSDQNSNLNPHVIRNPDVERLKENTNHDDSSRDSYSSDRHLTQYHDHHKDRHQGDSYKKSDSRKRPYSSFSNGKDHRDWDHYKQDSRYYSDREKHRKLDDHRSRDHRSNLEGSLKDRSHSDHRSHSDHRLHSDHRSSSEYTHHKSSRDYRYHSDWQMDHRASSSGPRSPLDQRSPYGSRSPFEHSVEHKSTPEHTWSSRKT
# Chain of SPIN1 (Q9Y657 whole entry, the tested form may be a part): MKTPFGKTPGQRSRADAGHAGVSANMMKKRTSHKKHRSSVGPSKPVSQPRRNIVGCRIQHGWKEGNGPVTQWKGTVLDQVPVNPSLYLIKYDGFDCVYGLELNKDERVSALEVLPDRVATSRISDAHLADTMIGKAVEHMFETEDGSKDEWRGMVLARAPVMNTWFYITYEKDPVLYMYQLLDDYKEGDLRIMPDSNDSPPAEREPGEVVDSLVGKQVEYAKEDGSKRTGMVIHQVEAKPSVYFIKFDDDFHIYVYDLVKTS
smiles,measurement,setting,value
"CC(=O)N1c2ccccc2[C@@](C#N)(c2ccccc2)[C@@H]1c1cncc(CCCCCCCN2CCCC2)c1 [(S,S)-6]",IC50,[1],0.19 µM
same,IC50,[2],> 20 µM
same,IC50,[3],> 20 µM
same,IC50,[4],> 20 µM
same,IC50,[5],> 20 µM
same,IC50,[6],> 20 µM
